Reference: patent US20230320345A1, “METHODS AND COMPOSITIONS FOR INHIBITING ICE RECRYSTALLIZATION” (UNIVERSITY OF TENNESSEE RESEARCH FOUNDATION, priority 2022, published 2023)
Where “and” joins values, the source holds several entries; their conditions need not be identical. Identical values can stand only once. Entries after “also recorded” stand apart in the source; their conditions may differ.

Assays:
[1] = Ice recrystallization inhibition (IRI) "splat" assay; settings: for IRI activity: splat assay, 30 min incubation at -8° C., 12.5-100 mM; for %MLGS compared with PEG: at 40 mg/mL
Description: Ice recrystallization inhibition (IRI) activity of bile salts. NaC, NaDC, NaCC, and NaLC were tested for IRI activity at concentrations of 12.5, 25.0, 50.0, and 100 mM in 1x PBS using the “splat” assay test known and described in Knight, C. A.; Hallett, J.; Devries, A. L., “Solute effects on ice recrystallization: An assessment technique,” Cryobiology 1988, 25 (1), 55-60, which is incorporated herein by reference. 100 mM NaLC was not tested due to its gelation. A droplet of the sample was gently squeezed out of a syringe with a 21-gauge needle from Exelint, Redondo Beach, CA, and was dripped from 1.4 m above onto a microscope slide sitting on a metal block surrounded by dry ice. Upon hitting the slide surface, the droplet instantaneously froze into an ice wafer. The ice wafer was immediately transferred into the chamber of a cryostage system from Instec, Boulder, CO, for incubation. Pictures were taken after 30 min incubation at -8° C. by a BX51 polarized microscope from Olympus, Tokyo, Japan, equipped with a DP70 camera from Olympus. PEG was tested as a negative control at concentrations of 5, 10, 20, and 40 mg/mL in 1x PBS to match the mass concentrations (w/v) of bile salts. PVA was tested as a positive control at low concentrations, including 0.05, 0.10, 0.20, and 0.40 mg/mL in 1x PBS, because of its high IRI activity. The largest lengths of the five largest ice crystals in one picture were measured by Image J software from National Institutes of Health, Bethesda, MD. Each sample was performed in triplicate. Each replication had five pictures randomly selected, representing a total of 75 ice crystals for each sample. The percent mean largest grain size (%MLGS) was calculated by averaging three replications divided by the blank. Data are reported as the mean ± standard derivation of three replications. The %MLGS calculations are plotted in FIG. 3 against the concentrations of the bile acids and the controls.

[2] = Optical photos of bile salt solutions as a function of temperature, with crossed polarized filters; format: physicochemical; settings: 25 mM in PBS; for liquid crystal phase: all temperatures, crossed polarized filter; for appearance of solution: temperatures from 90° C. to -15° C.
Description: (§1) Viscosity profiles, critical micelle concentration (CMC), and optical photos of bile salts. The critical micelle concentration of a colloid or surfactant is the concentration of surfactant above which micelles form, and any additional surfactant added to the system will form micelles. The viscosity profile of NaC, NaDC, NaCC, and NaLC at a concentration of 25 mM in 1x PBS were determined by an AR2000 rheometer from TA Instruments in New Castle, PA, with a 40 mm aluminum parallel plate at 25° C. The samples were measured from 0.1 to100 s^-1 shear rate after pre-shearing at 50 s^-1 for 30 seconds with or without an equilibrium time of 30 min. The CMCs were determined by a UV-vis spectroscopy method with slight modifications described in Reis, S.; Moutinho, C. G.; Matos, C.; de Castro, B.; Gameiro, P.; Lima, J. L., “Noninvasive methods to determine the critical micelle concentration of some bile acid salts,” Anal Biochem 2004, 334 (1), 117-26, which is incorporated herein by reference. NaC, NaDC, and NaCC were dissolved in water at concentrations from 1 to 25 mM. The absorbance spectra from 200 to 300 nm were collected by an Evolution 201 spectrometer from Thermo Scientific, Waltham, MA to find the peak absorbance. The CMC was determined from the sudden change of peak absorbance as concentration increases. The optical photos of bile salt in 1X PBS solutions were taken after incubation at each designed temperature for 20 minutes.

[3] = Ice recrystallization inhibition (IRI) "splat" assay; settings: concentrations close to or below literature CMC value, PBS (FIG. 6D)
[4] = Viscosity profile by rheometer / gel formation; format: physicochemical; settings: for viscosity: 25 mM in 1x PBS, 25° C.
Description: as §1

[5] = Atomic force microscopy (AFM) analysis of bile salt solutions; format: physicochemical; settings: 25 mM sample, dried on mica
Description: Atomic force microscopy (AFM) analysis of bile salt solutions. The AFM procedure was followed as set forth in Schefer, L.; Adamcik, J.; Diener, M.; Mezzenga, R., “Supramolecular chiral self-assembly and supercoiling behavior of carrageenans at varying salt conditions,” Nanoscale 2015, 7 (39), 16182-16188, which is incorporated herein by reference. Briefly, 0.01% (v/v) APTES in water was incubated on a freshly peeled mica surface for 1 min. APTES solution was then washed away using water on a P6700 spin coater from Specialty Coating Systems Inc., Indianapolis, IN, at 2,000 rpm. About 200 µL of 25 mM sample was loaded on the mica surface and incubated for 30 seconds. Then the mica was rinsed with 1.0 mL water drop-wise and dried in a vacuum chamber at room temperature. All mica surfaces were observed by a Multimode VIII AFM from Bruker, Santa Barbara, USA, in ScanAsyst-Air mode. All images were flattened using Nanoscope Analysis software from Bruker, Santa Barbara, USA, before analyzing by an ImageJ instrument from National Institutes of Health, Bethesda, MD.

[6] = Ice growth kinetics of NaLC; settings: 1x PBS, -8° C., up to 60 min
Description: Ice growth kinetics of NaLC. The ice growth kinetics in the presence of NaLC at 12.5, 25, and 50 mM was determined at -8° C. in 1x PBS. Five pictures were taken every 5 min for a total time of 60 min. %MLGS at each time was calculated against its blank control at the same time.

| gel formation ([4]; 100 mM, after sample preparation) | viscosity ([4]; fresh-prepared) | helical structure by AFM [5] | helix length [5] | helix turn [5] | helix width [5] | Compound | IRI activity ([1]; 1x PBS) | temperature at which ices were formed [2] | liquid crystal phase [2] | appearance of solution [2] | %MLGS compared with PEG ([1]; 1x PBS, 30 min at -8° C.) | IRI activity (%MLGS) [3] | ice crystal size compared to blank 1x PBS and negative control PEG ([1]; 10 mg/mL (25 mM), 30 min at -8° C.) | ice crystal sizes compared with positive control PVA ([1]; 10 mg/mL NaLC, 1x PBS, 30 min at -8° C.) | concentration at which IRI active ([1]; 1x PBS, 30 min at -8° C.) | ice growth ([6]; 12.5 mM) | ice growth ([6]; 25.0 mM) | ice growth ([6]; 50.0 mM) | viscosity ([4]; after 30-min equilibrium) |
| --- | --- | --- | --- | --- | --- | --- | --- | --- | --- | --- | --- | --- | --- | --- | --- | --- | --- | --- | --- |
| – | – | – | – | – | – | C[C@H](CCC(=O)[O-])[C@H]1CC[C@H]2[C@@H]3[C@H](O)C[C@@H]4C[C@H](O)CC[C@]4(C)[C@H]3C[C@H](O)[C@]12C.[Na+] [NaC, sodium cholate] | not IRI active | -15 °C | no liquid crystal phase was observed | clear | – | – | – | – | – | – | – | – | – |
| – | – | – | – | – | – | C[C@H](CCC(=O)[O-])[C@H]1CC[C@H]2[C@@H]3[C@H](O)C[C@@H]4C[C@H](O)CC[C@]4(C)[C@H]3CC[C@]12C.[Na+] [NaCC, sodium chenodeoxycholate] | weak ice recrystallization inhibitor | -15 °C | no liquid crystal phase was observed | clear | smaller %MLGS values than PEG | – | – | – | – | – | – | – | – |
| gel was formed | highest viscosity among four bile salts | helical structure | 1.72 ± 0.37 µm | 0.19 ± 0.04 µm | 0.14 ± 0.01 µm | C[C@H](CCC(=O)[O-])[C@H]1CC[C@H]2[C@@H]3CC[C@@H]4C[C@H](O)CC[C@]4(C)[C@H]3CC[C@]12C.[Na+] [NaLC, sodium lithocholate] | relatively potent IRI; also recorded: most potent ice recrystallization inhibitor | – | – | turbid | – | No IRI activity was observed | significantly smaller ice crystals | comparable to those in the positive control of 1 mg/mL PVA | around 10 mg/mL and ~25 mM | IRI active but did not stop the ice growth completely | completely stopped the growth of ice crystals; also recorded: block the growth of ice crystals | completely stopped the growth of ice crystals | – |
| – | – | – | – | – | – | sodium deoxycholate [NaDC] | weak ice recrystallization inhibitors | – | – | clear | smaller %MLGS values than PEG | – | – | – | – | – | – | – | increased significantly to a level similar to that of NaLC |
